pIC50: −log10 of the molar value. Activity calls are given as the source filed them. The calls are words filed in the database; no cut-off is given here.
Columns and labels:
[1] = Antioxidant activity assessed as inhibition of ABTS free radical; assay type: functional
[2] = Binding affinity to Cu2+; assay type: physicochemical
[3] = Binding affinity to Fe2+
[4] = Antioxidant activity assessed as Cu2+ quenching activity; assay type: functional
[5] = Antioxidant activity assessed as Fe2+ quenching activity; assay type: functional
[6] = tested on: Radical scavenging activity; assay: Antioxidant activity assessed as inhibition of DPPH free radical; assay type: functional
[7] = Antioxidant activity assessed as Cu2+ chelating activity by fluorescence spectroscopy; assay type: functional
[8] = Antioxidant activity assessed as Fe2+ chelating activity by fluorescence spectroscopy; assay type: functional

SMILES	pIC50 [1]	Ka [2]	Ka [3]	KSV [4]	KSV [5]	pIC50 [6]	Activity [7]	Activity [8]
Oc1cccc(/N=C/c2ccccc2O)c1	5.43	3.02 ×10³ /M	3.21 ×10³ /M	1.1 ×10⁵ /M	2.61 ×10⁴ /M	3.39	–	–
Oc1ccccc1/C=N/c1ccccc1O	5.29	1.26 ×10⁴ /M	6.48 ×10³ /M	6.07 ×10⁴ /M	6.7 ×10⁴ /M	4.60	Active	Active
Oc1ccc(/N=C/c2ccco2)cc1	5.21	0.85 ×10³ /M	1.81 ×10³ /M	1.17 ×10³ /M	0.9 ×10³ /M	4.30	–	–
Oc1ccc(/N=C/c2ccccc2)cc1 [4-(BENZYLIDENEAMINO)PHENOL]	5.22	3.17 ×10³ /M	1.62 ×10⁴ /M	3.49 ×10³ /M	4.09 ×10³ /M	4.15	–	–
Oc1cccc(/N=C/c2ccccc2)c1 [3-(BENZYLIDENEAMINO)PHENOL]	4.48	1.39 ×10⁴ /M	1.47 ×10⁴ /M	5.2 ×10³ /M	7.03 ×10³ /M	3.33	–	–
Cc1cc(C(C)(C)C)c(O)c(C(C)(C)C)c1 [BUTYLATED HYDROXYTOLUENE]	4.43	–	–	–	–	4.18	–	–
Oc1ccc(/N=C/c2ccccc2O)cc1	5.33	4.43 ×10³ /M	9.67 ×10³ /M	7.21 ×10⁴ /M	1.43 ×10⁵ /M	3.97	–	–
Oc1cccc(/N=C/C=C/c2ccccc2)c1	5.40	3.51 ×10³ /M	6.25 ×10³ /M	2.8 ×10³ /M	8.91 ×10³ /M	3.84	–	–
Oc1ccc(/N=C/C=C/c2ccccc2)cc1	5.31	1.45 ×10⁴ /M	2.47 ×10⁴ /M	2.49 ×10³ /M	6.6 ×10³ /M	3.40	–	–
CN(C)c1ccc(/C=N/c2ccccc2O)cc1	5.15	2.36 ×10⁴ /M	7.3 ×10⁴ /M	1.53 ×10⁴ /M	5.19 ×10³ /M	4.97	–	–
CN(C)c1ccc(/C=N/c2ccc(O)cc2)cc1	5.38	3.05 ×10³ /M	5.03 ×10³ /M	2.69 ×10⁴ /M	7.4 ×10³ /M	4.68	–	–

Source: ChEMBL document CHEMBL3046410, “Antioxidant activities and transition metal ion chelating studies of some hydroxyl Schiff base derivatives” (Med Chem Res, 2012)
